# Results as given in US7173134B2, “Selective RXR ligands” (SmithKline Beecham Corporation, priority 2001, dated 2007).
# Legend:
# hRXRα = target: T1, hRXRα (Homo sapiens, UniProt P19793); assay: Scintillation Proximity Assay (SPA) binding assay, 9-cis[3H]-retinoic acid radioligand; details: RXRα ligand binding domain on SPA beads; radioligand 9-cis[3H]-retinoic acid; read-out: Apparent pKi (converted)
# T1 construct: polyhistidine (N); made in house; host or cells: E. coli
# T1 sequence (P19793 227-458 limits assumed): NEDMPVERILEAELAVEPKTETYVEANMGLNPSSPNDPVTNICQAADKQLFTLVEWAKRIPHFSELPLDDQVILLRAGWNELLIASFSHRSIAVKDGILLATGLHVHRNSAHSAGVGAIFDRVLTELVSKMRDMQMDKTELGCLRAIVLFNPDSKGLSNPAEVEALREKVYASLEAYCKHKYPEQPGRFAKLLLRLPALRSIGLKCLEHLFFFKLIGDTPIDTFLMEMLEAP
# Method: The compounds were tested for their ability to bind to hRXRα using a Scintillation Proximity Assay (SPA) as is known in the art. The RXRα ligand binding domain (LBD) was expressed in E. coli as an amino-terminal polyhistidine tagged fusion protein. The LBD was then labeled with biotin and immobilized on streptavidin-modified scintillation proximity beads.
# 9-cis[3H]-Retinoic acid (9-cis) was the radioligand used for the assay. To each well to be assayed was added the desired concentration of the previously prepared solution of 9-cis previously incubated with receptor-coated SPA bead slurry. The plates were incubated for at least 1 hour at room temperature and bound radioactivity for each well was determined in a Wallac 1450 Microbeta counter.
# In this specification, pKi=−log of the concentration of the test compound required to achieve an apparent Ki value according to the equation Ki=IC50/1+[L]/Kd, where IC50=the concentration of test compound required to inhibit 50% of the specific binding of the radioligand, [L] is the concentration of the radioligand used, and Kd is the dissociation constant for the radioligand at the receptor.
# full length human RXRα = target: T2, full length human RXRα (Homo sapiens, UniProt P19793); assay: Transient transfection assay in CV-1 cells (CRBP II-tk-SPAP reporter); type: cell-based; details: CV-1 cells transfected with human RXRα and CRBP II-tk-SPAP reporter; 24 h incubation; SPAP activity
# T2 construct: These cells were transfected with full length human RXRα; expressed in transfected cells; host or cells: CV-1 (monkey kidney cell line)
# T2 sequence (P19793 1-462): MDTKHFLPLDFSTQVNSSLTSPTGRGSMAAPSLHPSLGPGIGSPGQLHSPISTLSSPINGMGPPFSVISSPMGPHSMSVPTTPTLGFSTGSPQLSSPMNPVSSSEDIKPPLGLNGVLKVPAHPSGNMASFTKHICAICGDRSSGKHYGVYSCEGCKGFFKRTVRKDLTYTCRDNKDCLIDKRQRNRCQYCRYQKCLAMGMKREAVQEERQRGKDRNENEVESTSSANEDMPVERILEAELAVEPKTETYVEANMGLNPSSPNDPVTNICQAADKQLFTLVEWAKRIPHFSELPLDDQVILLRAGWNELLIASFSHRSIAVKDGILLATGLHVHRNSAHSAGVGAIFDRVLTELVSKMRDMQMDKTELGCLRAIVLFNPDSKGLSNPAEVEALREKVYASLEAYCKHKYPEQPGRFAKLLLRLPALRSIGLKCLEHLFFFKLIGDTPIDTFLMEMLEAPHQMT
# Method: Transcriptional activity of the compounds was measured in a monkey kidney cell line (CV-1). These cells were transfected with full length human RXRα and the natural response element, cellular retinol binding protein type II in a reporter gene construct, (CRBP II-tk-SPAP), consisting of HSV tk promoter, and the secreted placental alkaline phosphatase reporter gene. CV-1 cells were plated at a density of 24,000 cells per well in high glucose DMEM supplemented with 10% charcoal/dextran-treated FBS. Transfection mixes contained 4 ng of receptor expression vector, 8 ng of reporter plasmid, 25 ng of β-galactosidase expression vector (used as an internal control), and 43 ng of carrier plasmid. Transfections were performed with Lipofectamine according to the manufacturer's instructions. Drug dilutions were prepared in phenol red-free DMEM/F-12 with 15 mM HEPES supplemented with 10% charcoal-stripped, delipidated calf serum. Cells were incubated for 24 h in the presence of drugs, after which the medium was sampled and assayed for SPAP activity.
# B-galactosidase, which measures transfection efficiency activity, was determined by using 3.6 mM o-nitrophenyl-D-galactopyranoside in 0.1 M sodium phosphate pH 7.2 buffer containing 0.13% Triton X-100 as substrate. These plates were read on a Molecular Devices Vmax spectrophotometer, at a 405 nm endpoint reading. Data were reduced using RoboFit.
# The results were expressed as percent of maximum or fold activation calculated by the following formulas: fold activation=(((SPAP−SPAPsubstrate blank avg.)/(β-gal−β-gal substrate blank avg.))−DMSO vehicle avg.)/DMSO vehicle avg, and % max.=(fold activation of unknown/positive control fold activation avg.)×100.
Ki (hRXRα),EC50 (full length human RXRα),Structure (SMILES)
> 1000 nM,> 1000 nM,"CC1(C)CCC(C)(C)c2cc(Cc3csc(/C=C/C(=O)O)c3)ccc21 [Example 18, (2E)-3-{4-[(5,5,8,8-Tetramethyl-5,6,7,8-tetrahydro-2-naphthalenyl)methyl]-2-thienyl}-2-propenoic acid]"
> 1000 nM,> 1000 nM,"CC1(C)CCC(C)(C)c2cc(C3CCCc4oc(C(=O)O)cc43)ccc21 (stereo not drawn) [Example 13, 4-(5,5,8,8-Tetramethyl-5,6,7,8-tetrahydro-2-naphthalenyl)-4,5,6,7-tetrahydro-1-benzofuran-2-carboxylic acid]"
> 1000 nM,> 1000 nM,"COc1cc2c(cc1Cc1coc(/C=C/C(=O)O)c1)C(C)(C)CCC2(C)C [Example 19, (2E)-3-{4-[(3-Methoxy-5,5,8,8-tetramethyl-5,6,7,8-tetrahydro-2-naphthalenyl)methyl]-2-furyl}-2-propenoic acid]"
